Experimental data: the NIST ThermoML archive (doi:10.1016/j.fluid.2014.09.014)

Experiment: refractive index (other wavelength) (dimensionless); xn = mol fraction of the nth substance listed
Details: 318.15 K, 101 kPa, Liquid, Standard Abbe refractometry

CC(C)OC(C)C [diisopropyl ether] + CO
refractive index
Details | Wavelength=486.1 nm | Wavelength=546.1 nm | Wavelength=587.6 nm | Wavelength=589.3 nm | Wavelength=632.8 nm | Wavelength=644 nm | Wavelength=706.5 nm
x2 = 0 | – | 1.35556 | 1.35416 | 1.35411 | 1.3529 | 1.35259 | 1.3512
x2 = 0.0423 | – | 1.35556 | 1.35414 | 1.35409 | 1.35285 | 1.35256 | 1.35117
x2 = 0.0424 | – | 1.35551 | 1.3541 | 1.35405 | 1.35283 | 1.35253 | 1.35116
x2 = 0.082 | – | 1.35551 | 1.35411 | 1.35406 | 1.35285 | 1.35255 | 1.35115
x2 = 0.0822 | – | 1.35565 | 1.35423 | 1.35418 | 1.35295 | 1.35267 | 1.35128
x2 = 0.1171 | – | 1.35556 | 1.35417 | 1.35412 | 1.3529 | 1.35259 | 1.3512
x2 = 0.1271 | – | 1.35557 | 1.35415 | 1.3541 | 1.35289 | 1.3526 | 1.35122
x2 = 0.1827 | 1.35814 | 1.35541 | 1.354 | 1.35395 | 1.35273 | 1.35243 | 1.35105
x2 = 0.2162 | 1.35804 | 1.35526 | 1.35387 | 1.35382 | 1.35262 | 1.35233 | –
x2 = 0.251 | 1.35753 | 1.35479 | 1.35338 | 1.35333 | 1.35213 | 1.35185 | –
x2 = 0.3298 | 1.358 | 1.35528 | 1.35387 | 1.35292 | 1.35259 | 1.35229 | 1.35092
x2 = 0.3577 | 1.35689 | 1.35419 | 1.35274 | 1.35269 | 1.35147 | 1.3512 | 1.34984
x2 = 0.4497 | 1.35572 | 1.35303 | 1.35162 | 1.35157 | 1.35038 | 1.3501 | 1.34871
x2 = 0.4525 | 1.35631 | 1.3537 | 1.35228 | 1.35223 | 1.35098 | 1.35071 | 1.34936
x2 = 0.522 | 1.35398 | 1.35136 | 1.34995 | 1.34989 | 1.34869 | 1.34842 | 1.34709
x2 = 0.5543 | 1.35305 | 1.35042 | 1.34905 | 1.349 | 1.34779 | 1.34751 | 1.34616
x2 = 0.609 | 1.35085 | 1.34818 | 1.34684 | 1.3468 | 1.34566 | 1.34538 | 1.34405
x2 = 0.6529 | 1.34936 | 1.34672 | 1.34534 | 1.34529 | 1.34413 | 1.34386 | 1.34255
x2 = 0.7504 | 1.34529 | 1.34271 | 1.34138 | 1.34133 | 1.34018 | 1.3399 | 1.33858
x2 = 0.804 | 1.33919 | 1.33675 | 1.33541 | 1.33536 | 1.33421 | 1.33396 | 1.33271
x2 = 0.807 | 1.34094 | 1.33842 | 1.33709 | 1.33777 | 1.33591 | 1.33566 | 1.33438
x2 = 0.8727 | 1.3379 | 1.33543 | 1.33411 | 1.33406 | 1.33294 | 1.33269 | 1.33146
x2 = 0.9233 | 1.32983 | 1.32743 | 1.32614 | 1.3261 | 1.32501 | 1.32477 | 1.3236
x2 = 0.9253 | 1.33151 | 1.32907 | 1.32777 | 1.32772 | 1.32665 | 1.32641 | 1.32521
x2 = 0.9527 | 1.32842 | 1.32601 | 1.32474 | 1.32469 | 1.32362 | 1.32339 | 1.32222
x2 = 0.9773 | 1.32541 | 1.32301 | 1.32177 | 1.32173 | 1.32066 | 1.32042 | 1.3193
x2 = 0.989 | 1.3242 | 1.32177 | 1.32052 | 1.32048 | 1.31944 | 1.31921 | 1.31807
x2 = 0.9964 | 1.32328 | 1.3209 | 1.31967 | 1.31963 | 1.31859 | 1.31836 | 1.31724
